Experimental findings from publication PMC12866179, “Oxidized MIF is an Alzheimer’s disease drug target relaying external risk factors to tau pathology” (Cell Reports Medicine, 2025) are described below.

For data set [1], the system named is Akt. Kind of data set: Akt phosphorylation (Ser473) in SH-SY5Y-tau-P301S cells, immunoblot. Particulars: dose-dependent and MIF-dependent. The data set is classed as cell-based, human. Here is the method:
After the protein concentration of cell lysates and homogenates had been determined using the DC Protein Assay Kit (Bio-Rad), 20 μg of each sample were dissolved in NuPAGE LDS Sample buffer (including 2% β-mercaptoethanol), boiled at 100°C for 5 min and then separated on NuPAGE Novex 4–12% Bis-Tris midi gels (Invitrogen) using NuPAGE MES SDS Running buffer (Invitrogen). Proteins were then transferred to a 0.2 μm nitrocellulose membrane (Amersham) in 24 mM Tris/192 mM glycine/20% MeOH at 400 mA for 2h using a tank blot system (Bio-Rad). In order to detect any blotting artifacts, the proteins on the membranes were visualized with Ponceau S (Sigma). The membranes were destained with PBS and then blocked with PBS/5% nonfat milk (Oxoid) for 1h at RT. Incubations with primary antibodies (diluted 1:1,000) in PBS-T were carried out overnight at 4°C. Then the membranes were washed three times with PBS-T for 10 min and afterward incubated with fluorescent secondary antibodies (IR Dye 680 or 800: Li-COR Biosciences.) diluted 1:20,000 in PBS-T for 1h at RT. Following three washing steps with PBS-T for 10 min each, the membranes were scanned using an LI-COR Odyssey CLX. Signal intensities were calculated using the Image Studio Version 2.1 software (LI-COR Biosciences). Blots were reused for staining with additional primary antibodies following the same procedure.
(A western blot detects proteins with antibodies after separation by electrophoresis.)

The format of data set [2] is in vivo. Particulars: compared with PAV-174. How it is done:
Figure S5. PAV-17 4 decreases ta u phosphorylation and aggr e gat ion in vi v o. Rel a ted to […]
(A) MTD (Maximum Tol erated Dose) assessment of PAV com pounds in BALB/c mice. BALB/c mice we re dosed through int ra pe rit o ne al (IP ) ro ute at di ff e ren t doses as pe r bo dy we igh t of an ima ls an d mice we re obser ved at di ff e ren t time interval for toxic signs till 48 h, PD (Post dose) . MTD at wa s declared at NOAEL (No-obser ved-adver se-effect level) conc. of PAV […]
(B) PAV-61 7 dose- an d MIF-de pe nd en t ly reduces tau phosphorylati on (A T8) . SH-SY5Y-P301S-control or -MIF-knockdown cel ls we re treated with the indicated concentrations of PAV- […]
cel ls. The di ag ram s show the signals of AT8 normalized to total tau (HT7 ) from six (n =6) in de pe nd en t exper iments. One-wa y ANOVA (Sidak´s post-hoc)
(C) Pharmacokinetic assessment of PAV-61 7 in Sprague Da wley ra ts (S D). Ma le SD ra ts (n=4) we re dosed via three ro utes na me ly intravenous (IV )- 1 mg/kg, (IP )- 5 mg/kg an d per ora l (P O)- 5 mg/kg. Plasma concentration wa s anal yzed at di ff e ren t time intervals. Pharmacokinetic pa ra met e rs we re de t erm ine d usi ng Win No nlin . Cma x (p ea k pl asma concentration) achieved through IV wa s 12 8 ng / mL, IP wa s 36 2. 6 ng / mL an d PO wa s 15 1. 1 ng / mL at Tmax (time of pe ak concentration obser ved) 1 h, 0. 5 h an d 4 h respectively. […]

As for `CCc1cc(N2CCCC2)cc2[s+]c3cc(N4CCCC4)cc(C)c3nc12.[I-]` [PAV-174, 3,7-Di(pyrrolidine-1-yl) 1-ethyl-9-methyl-phenothiazin-5-ium iodide], in data set [1], the “phosphorylation of Akt at Ser473” value is recorded as “increased”.

Consider `[I-].c1cc2nc3ccc(N4CCCC4)cc3[s+]c2cc1N1CCCC1` [PAV-617, 3,7-Di(pyrrolidine-1-yl)phenothiazine-5-ium iodide], for which the toxicity in mice entry in data set [2] is “less toxic in mice”.
